Reference: US20140249196A1, “N-BENZYLBENZIMIDAZOLE MODULATORS OF PPARG” (priority 2011, published 2014)

Experiments:
GST-PPARG-LBD = target: T1, GST-PPARG-LBD (Homo sapiens, UniProt P37231); assay: Lanthascreen PPARG competitive binding assay (Invitrogen); conditions: Table 3; for IC50: read-out: IC50 (nM) Lantha
T1 construct: A mixture of 5 nM GST-PPARG-LBD; purchased Invitrogen
T1 sequence (P37231 238-503 limits assumed): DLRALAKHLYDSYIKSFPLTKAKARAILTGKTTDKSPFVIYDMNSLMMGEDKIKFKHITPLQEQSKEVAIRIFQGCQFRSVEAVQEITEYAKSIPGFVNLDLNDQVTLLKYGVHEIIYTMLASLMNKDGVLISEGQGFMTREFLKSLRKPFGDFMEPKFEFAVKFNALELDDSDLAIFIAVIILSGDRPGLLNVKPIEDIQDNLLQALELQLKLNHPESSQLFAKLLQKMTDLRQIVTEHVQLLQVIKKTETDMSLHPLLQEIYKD
Procedure: Lanthascreen PPARG Competitive Binding Assay (Invitrogen)
The assay was performed according to manufacturer protocol. A mixture of 5 nM GST-PPARG-LBD, 5 nM Tb-GST-antibody, 5 nM Fluormone Pan-PPAR Green, and serial dilutions of the experimental compound, beginning at 10 μM downwards, was added to wells of black 384-well low-volume plates (Greiner) to a total volume of 18 μL. All dilutions were made in TR-FRET assay buffer C. DMSO at 2% final concentration was used as a no-ligand control. Experiment was performed in triplicate, and incubated for 2 hours in the dark prior to assay read in Perkin Elmer ViewLux ultra HTS microplate reader. FRET signal was measured by excitation at 340 nm and emission at 520 nm for fluorescein and 490 nm for terbium. Fold change over DMSO was calculated using GraphPad Prism Software (La Jolla, Calif.) by calculating 520 nm/490 nm ratio. Graphs were plotted as fold change of FRET signal for compound treatment over DMSO-only control.

PPARG [1] = target: T2, PPARG (Homo sapiens, UniProt P37231); assay: Gal4 transactivation assay; assay type: cell-based; conditions: Table 3
T2 construct: own inference from the column head
T2 sequence (P37231 1-505): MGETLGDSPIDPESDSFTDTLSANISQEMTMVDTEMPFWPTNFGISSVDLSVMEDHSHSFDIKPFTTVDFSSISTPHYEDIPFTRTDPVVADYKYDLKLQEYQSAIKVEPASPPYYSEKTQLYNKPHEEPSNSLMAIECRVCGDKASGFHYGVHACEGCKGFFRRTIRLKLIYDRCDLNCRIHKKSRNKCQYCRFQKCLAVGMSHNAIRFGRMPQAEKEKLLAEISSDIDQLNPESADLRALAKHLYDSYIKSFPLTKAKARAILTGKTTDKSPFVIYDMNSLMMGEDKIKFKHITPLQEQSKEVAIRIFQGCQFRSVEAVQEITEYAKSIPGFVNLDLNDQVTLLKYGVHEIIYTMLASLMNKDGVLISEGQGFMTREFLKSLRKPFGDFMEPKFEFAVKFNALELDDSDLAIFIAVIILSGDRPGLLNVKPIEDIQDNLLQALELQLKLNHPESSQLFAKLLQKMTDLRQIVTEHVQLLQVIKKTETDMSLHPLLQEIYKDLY

PPARG [2] = assay: Cell-based transactivation assay (3xPPRE-luciferase reporter, COS-1 cells co-transfected with PPARG); parameters: species or system murine or human (not said which for the values)
Procedure: Cell-Based Transactivation Assay: PPRE is a DNA that contains a binding site for PPARG; thus PPRE is a PPAR response element, used herein as a promoter reporter. The binding site is a DR1 response element with the sequence [NT] repeated 3 times in tandem and then fused to a construct for luciferase. Thus, PPRE is the basis of the cell based transactivation assay described below. The plasmid DNA is co-transfected along with a plasmid for PPARG into COS-1 cells. After an overnight incubation, cells are treated with DMSO or compounds. […] Transfected cells were plated in white Perkin Elmer 384-well plates and incubated 4 hours. […] After 18 hour incubation, treated cells were developed with Brite Lite Plus (Perkin Elmer) and read in 384-well Luminescence Perkin Elmer EnVision Multilabel plate reader. Graphs were plotted in triplicate in GraphPad Prism Software as fold change of treated cells over DMSO control cells.

| SMILES | IC50 (GST-PPARG-LBD) [nM] | also measured |
| --- | --- | --- |
| CC(C)c1cccc([C@H](C)NC(=O)c2ccc3c(c2)ncn3[C@@H](C)c2ccc(Cl)cc2)c1 [Cpd 15] | 2520 |  |
| C[C@H](NC(=O)c1ccc2c(c1)ncn2Cc1ccc(Cl)cc1)c1ccc(Br)cc1 [Cpd 16] | 2380 |  |
| CC(C)c1cccc([C@H](C)NC(=O)c2ccc3c(c2)ncn3Cc2ccc(Cl)cc2)c1 [Cpd 17] | 4400 |  |
| C[C@@H](CC1CCOCC1)NC(=O)c1ccc2c(c1)ncn2Cc1ccc(Cl)cc1 [Cpd 19] | 2100 |  |
| O=C(NCC1CC1)c1ccc2c(c1)ncn2Cc1ccc(Cl)cc1 [Cpd 20] | 18300 |  |
| Cc1nc2cc(C(=O)N[C@@H](C)c3cccc(Br)c3)ccc2n1Cc1cccc(O[C@H](C)C(=O)O)c1 [Cpd 21] |  | IC50 (nM) Lantha (GST-PPARG-LBD): 1e+08 nM |
| COCCCNC(=O)c1ccc2c(c1)ncn2Cc1ccc(Cl)cc1 [Cpd 22] | 7330 |  |
| CCOCCNC(=O)c1ccc2c(c1)ncn2Cc1ccc(Cl)cc1 [Cpd 23] | 3710 |  |
| COCCNC(=O)c1ccc2c(c1)ncn2Cc1ccc(Cl)cc1 [Cpd 24] | 6360 |  |
| COC[C@H](C)NC(=O)c1ccc2c(c1)ncn2Cc1ccc(Cl)cc1 [Cpd 25] | 5220 |  |
| O=C(NCC[C@H]1CCO1)c1ccc2c(c1)ncn2Cc1ccc(Cl)cc1 [Cpd 26] | 6770 |  |
| CCCCNC(=O)c1ccc2c(c1)ncn2Cc1ccc(Cl)cc1 [Cpd 28] | 1420 |  |
| O=C(NCC1CCC1)c1ccc2c(c1)ncn2Cc1ccc(Cl)cc1 [Cpd 29] | 7950 |  |
| CC(C)CCC(C)NC(=O)c1ccc2c(c1)ncn2Cc1ccc(Cl)cc1 (stereo not drawn) [Cpd 30] | 42.3 | EC50 (PPARG [1]): 636 nM; GL4 % act 1 μM (PPARG [1]): 96.37%; GL4 % act 10 μM (PPARG [1]): 109.37% |
| CC(C)CC(C)NC(=O)c1ccc2c(c1)ncn2Cc1ccc(Cl)cc1 (stereo not drawn) [Cpd 31] | 31.8 | EC50 (PPARG [1]): 12200 nM; GL4 % act 1 μM (PPARG [1]): 34.29%; GL4 % act 10 μM (PPARG [1]): 68.66% |
| CCc1nc2cc(C(=O)N[C@@H](C)c3cccc(C(C)C)c3)ccc2n1Cc1cccc(O[C@@H](C)C(=O)O)c1 [Cpd 32] | 2030 |  |
| Cc1nc2cc(C(=O)N[C@@H](C)c3cccc(C(C)C)c3)ccc2n1Cc1cccc(O[C@@H](C)C(=O)O)c1 [Cpd 33] | 2420 |  |
| CC(C)CCNC(=O)c1ccc2c(c1)ncn2Cc1ccc(Cl)cc1 [Cpd 34] | 1090 |  |

| SMILES | IC50 (GST-PPARG-LBD) [nM] | also measured |
| --- | --- | --- |
| CCCc1nc2cc(C(=O)N[C@@H](C)c3cccc(C(C)C)c3)ccc2n1Cc1cccc(O[C@@H](C)C(=O)O)c1 [Cpd 35] | 2410 |  |
| COCCOCc1ccc2c(c1)ncn2Cc1ccc(Cl)cc1 [Cpd 36] | 13700 |  |
| COC(=O)[C@H](C)NC(=O)c1ccc2c(c1)ncn2Cc1ccc(Cl)cc1 [Cpd 38] | 2160 |  |
| COC[C@@H](NC(=O)c1ccc2c(c1)ncn2Cc1ccc(Cl)cc1)C(C)C [Cpd 39] | 612 | EC50 (PPARG [1]): 442 nM; GL4 % act 1 μM (PPARG [1]): 62.18% |
| CC(C)[C@@H](CO)NC(=O)c1ccc2c(c1)ncn2Cc1ccc(Cl)cc1 [Cpd 40] | 3250 |  |
| CC(C)c1cccc([C@H](C)NC(=O)c2ccc3c(c2)ncn3[C@H](C)c2ccc(Cl)cc2)c1 [Cpd 41] | 11000 |  |
| O=C(N[C@H](CO)c1ccccc1)c1ccc2c(c1)ncn2Cc1ccc(Cl)cc1 [Cpd 42] | 921 |  |
| COC(=O)[C@@H](NC(=O)c1ccc2c(c1)ncn2Cc1ccc(Cl)cc1)c1ccccc1 [Cpd 43] | 237 | EC50 (PPARG [1]): 752 nM; GL4 % act 1 μM (PPARG [1]): 51.21% |
| C[C@@H](CO)NC(=O)c1ccc2c(c1)ncn2Cc1ccc(Cl)cc1 [Cpd 46] | 24400 |  |
| CC(C)CC(C)NC(=O)c1ccc2c(c1)ncn2[C@H](C)c1ccc(Cl)cc1 (stereo partly drawn) [Cpd 47] | 8400 |  |
| CC(C)CCC(C)NC(=O)c1ccc2c(c1)ncn2[C@H](C)c1ccc(Cl)cc1 (stereo partly drawn) [Cpd 48] | 1260 |  |
| CC(C)c1cccc([C@H](C)NC(=O)c2ccc3c(c2)ncn3Cc2ccc(Cl)nc2)c1 [Cpd 49] | 2050 |  |
| CC(C)c1cccc([C@@H](C)NC(=O)c2ccc3c(c2)ncn3Cc2ccc(Cl)cc2)c1 [Cpd 50] | 162 | EC50 (PPARG [1]): 44.1 nM; GL4 % act 1 μM (PPARG [1]): 54.52% |
| CC[C@@H](NC(=O)c1ccc2c(c1)ncn2Cc1ccc(Cl)cc1)c1ccccc1 [Cpd 51] | 1050 | EC50 (PPARG [1]): 3910 nM; GL4 % act 1 μM (PPARG [1]): 76.12% |
| CC[C@H](NC(=O)c1ccc2c(c1)ncn2Cc1ccc(Cl)cc1)c1ccccc1 [Cpd 52] | 403 | EC50 (PPARG [1]): 99.3 nM; GL4 % act 1 μM (PPARG [1]): 30.41% |
| COc1ccc(C(=O)n2c(C)c(Cc3cccc(O[C@@H](C)C(=O)O)c3)c3cc(OC(F)(F)F)ccc32)cc1 [MRL24] |  | transactivation of the reporter, % of rosiglitazone response (PPARG [2]; relative to rosiglitazone): about 25% |
| CN(CCOc1ccc(CC2SC(=O)NC2=O)cc1)c1ccccn1 (stereo not drawn) [rosiglitazone] |  | activation of the PPRE reporter (PPARG [2]; over DMSO): about 5 fold |
